According to PubChem BioAssay (NCI):
Several values for one entry are separate records, joined by “and”; a condition that tells them apart may be missing. Equal entries are not always repeated.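 Test compounds were applied to cells in 96-well plates for 48 hours at 5 doses. GI50: concentration for 50% inhibition of growth. TGI: concentration producing complete growth inhibition.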

Columns and labels:
Assay in all cases: growth of human tumour cells (NCI), 48 h
[1] = tested on: RPMI-8226 leukemia
[2] = tested on: NCI-H23 lung
[3] = tested on: OVCAR-3 ovarian
[4] = tested on: RXF 393 renal
[5] = tested on: SF-295 CNS
[6] = tested on: MALME-3M melanoma
[7] = tested on: SK-MEL-5 melanoma
[8] = tested on: TK-10 renal
[9] = tested on: DLD-1 colon

C/C(=N\NC(=S)N(C)C)c1ccccn1
GI50 [1]: 0.000878 µM | TGI [1]: 31.9 µM | TGI [2]: 18.7 µM | GI50 [3]: 0.000474 µM | TGI [4]: 13.4 µM | GI50 [5]: 0.012 µM | TGI [5]: 13.1 µM | GI50 [6]: 0.00639 µM | GI50 [7]: 0.00143 µM | GI50 [8]: 0.00279 µM | TGI [8]: 10.7 µM

Cc1cc(C(=O)c2ccccc2)c(C)c2c1[nH]c1ccc(Cl)cc12
GI50 [1]: 0.0581 µM | TGI [1]: 22 µM | GI50 [2]: 0.101 µM | TGI [2]: > 47 µM | GI50 [3]: 0.0426 µM | TGI [3]: 9.8 µM | GI50 [4]: 0.0235 µM | TGI [4]: 0.0771 µM | GI50 [5]: 0.0294 µM | TGI [5]: 0.363 µM | GI50 [6]: 0.0558 µM | TGI [6]: 15.9 µM | GI50 [7]: 0.068 µM | TGI [7]: 1.19 µM | GI50 [8]: 3.11 µM | TGI [8]: 31.3 µM

CC(C)=CCCC(C)C1=C(O)C(=O)C(C)=CC1=O (configuration not stated)
TGI [1]: > 100 µM | TGI [2]: 34 µM | TGI [3]: 18.3 µM | TGI [4]: 17.8 µM | TGI [5]: > 100 µM | TGI [6]: 23 µM | TGI [7]: 24.6 µM | TGI [8]: 23.5 µM

COc1ccc2ccc3oc([N+](=O)[O-])cc3c2c1
GI50 [1]: 0.333 µM | TGI [1]: 5.92 µM | GI50 [2]: 0.198 µM | TGI [2]: 0.572 µM | GI50 [3]: 0.255 µM | TGI [3]: 0.754 µM | GI50 [4]: 0.141 µM | TGI [4]: 0.316 µM | GI50 [5]: 0.251 µM | TGI [5]: 3.22 µM | GI50 [6]: 0.187 µM | TGI [6]: 0.393 µM | GI50 [7]: 0.104 µM | TGI [7]: 0.228 µM | GI50 [8]: 0.56 µM | TGI [8]: 6.52 µM

O=C(O)c1cc2ccccc2c2c1C(=O)c1ccccc1-2
TGI [1]: > 100 µM | TGI [2]: > 100 µM | TGI [3]: > 100 µM | TGI [4]: > 100 µM | TGI [5]: > 100 µM | TGI [6]: > 100 µM | TGI [7]: > 100 µM | TGI [8]: > 100 µM

CNCCN=c1ccc2c3c1c(O)c1c(O)ccc(=O)c1c3[nH]n2CCNCCO
GI50 [1]: 0.129 µM and 0.294 µM | TGI [1]: 5.04 µM and 12.4 µM | TGI [2]: 2.75 µM | GI50 [3]: 1.16 µM | TGI [3]: 3.99 µM and 5.12 µM | GI50 [4]: 0.744 µM and 0.173 µM | TGI [4]: 2.54 µM and 1.25 µM | GI50 [5]: 0.0369 µM | TGI [5]: 0.794 µM and 0.811 µM | TGI [9]: 11.6 µM and 11.9 µM and 19.6 µM | GI50 [6]: 0.696 µM and 0.511 µM | GI50 [7]: 0.0847 µM and 0.139 µM | TGI [7]: 0.962 µM and 2.06 µM | GI50 [8]: 1.14 µM and 5.32 µM | TGI [8]: 7.54 µM and 18.6 µM

O=C(O)C(Oc1nc(=S)[nH]c(=S)[nH]1)(c1ccc(Cl)cc1)c1ccc(Cl)cc1
TGI [1]: > 100 µM | TGI [2]: > 100 µM | TGI [3]: > 100 µM | TGI [4]: > 100 µM | TGI [5]: > 100 µM | TGI [6]: > 100 µM | TGI [7]: > 100 µM | TGI [8]: > 100 µM

Oc1ccc(Cc2cc(Cl)cc(Cl)c2O)cc1Cl
TGI [1]: 48.4 µM | TGI [2]: 32.3 µM | TGI [3]: 36.6 µM | TGI [4]: 28.8 µM | TGI [5]: 39.6 µM | TGI [6]: 30.9 µM | TGI [7]: 32.1 µM | TGI [8]: 30.6 µM

COC(=O)C(C)NC(=O)c1ccccc1I(OS(=O)(=O)C(F)(F)F)c1ccccc1 (configuration not stated)
GI50 [1]: 3 µM | TGI [1]: 25.8 µM | GI50 [2]: 18.5 µM | TGI [2]: > 53.3 µM | GI50 [3]: 19 µM | TGI [3]: 41.8 µM | GI50 [4]: 17.7 µM | TGI [4]: 41.6 µM | GI50 [5]: > 44.7 µM | TGI [5]: > 63.6 µM | GI50 [6]: 14 µM | TGI [6]: 29.5 µM | GI50 [7]: 13.2 µM | TGI [7]: 26.5 µM | GI50 [8]: 21 µM | TGI [8]: 57.6 µM

O=C1C(Cl)=C(Nc2cccc(O)c2)C(=O)N1Cc1ccc(Cl)cc1Cl
GI50 [1]: 1.08 µM | TGI [1]: 14 µM | GI50 [2]: 3.78 µM | TGI [2]: 17.8 µM | GI50 [3]: 12.1 µM | TGI [3]: 26.4 µM | GI50 [4]: 1.06 µM | TGI [4]: 11.1 µM | GI50 [5]: 11.3 µM | TGI [5]: 25.1 µM | GI50 [6]: 1.18 µM | TGI [6]: 14.9 µM | GI50 [7]: 0.84 µM | TGI [7]: 5.64 µM | GI50 [8]: 13.6 µM | TGI [8]: 28.4 µM
